Read-outs that look alike come from different tables or passages of the source.
Target: plasmepsin II (Plasmodium falciparum, UniProt P46925)
Assay: biochemical
Details: FRET, pH 5, 37° C., 40 min, substrate 1 μM, read-out: IC50 (nM) on plasmepsin II

Sequence of plasmepsin II (P46925 125-453): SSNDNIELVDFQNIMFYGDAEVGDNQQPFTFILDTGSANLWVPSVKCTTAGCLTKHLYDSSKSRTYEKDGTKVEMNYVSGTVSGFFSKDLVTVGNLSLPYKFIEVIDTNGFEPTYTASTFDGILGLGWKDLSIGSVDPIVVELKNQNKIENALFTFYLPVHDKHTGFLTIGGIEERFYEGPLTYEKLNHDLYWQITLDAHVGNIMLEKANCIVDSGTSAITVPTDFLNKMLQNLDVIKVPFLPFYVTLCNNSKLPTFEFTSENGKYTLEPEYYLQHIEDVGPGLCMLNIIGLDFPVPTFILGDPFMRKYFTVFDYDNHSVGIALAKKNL

IC50 (Additional Examples table) [nM] | Compound | IC50 ([…]) [nM]
57 | CCCCCc1ccc(C(=O)N(Cc2ccc(-c3ccc(OCCO)cc3)cc2)C2CCN(Cc3ccoc3)CC2)cc1 [Example 51, N-(1-Furan-3-ylmethypiperidin-4-yl)-N-[4′-(2-hydroxyethoxy)biphenyl-4-ylmethyl]-4-pentylbenzamide] | 
942 | CCCCCC12CCC(C(=O)N(Cc3ccc(-c4ccccc4)cc3)C3CCN(Cc4ccccc4)CC3)(CC1)CC2 [Example 118, 4-Pentylbicyclo[2.2.2]octane-1-carboxylic acid(1-benzylpiperidin-4-yl)-biphenyl-4-ylmethylamide] | 
192 | CCCCCc1ccc(C(=O)N(Cc2ccc(-c3ccccc3)cc2)C2CCN(Cc3ccc(O)cc3)CC2)cc1 [Example 81, N-Biphenyl-4-ylmethyl-N-[1-(4-hydroxybenzyl)piperidin-4-yl]-4-pentylbenzamide] | 
 | CCCCCc1ccc(C(=O)N(Cc2ccc(-c3ccc(C#N)cc3)cc2)C2CCN(Cc3ccoc3)CC2)cc1 [Example 32] | 18
127 | CCCCCc1ccc(C(=O)N(Cc2ccc(-c3ccccc3)cc2)C2CCN(Cc3ccoc3)CC2)cc1 [Example 71, N-Biphenyl-4-ylmethyl-N-(1-furan-3-ylmethyl-piperidin-4-yl)-4-pentylbenzamide] | 
461 | CCCCCc1ccc(C(=O)N(Cc2ccc(-c3ccc(N(C)C)cc3)cc2)C2CCN(Cc3ccccc3)CC2)cc1 [Example 106, N-(1-Benzylpiperidin-4-yl)-N-(4′-dimethylaminobiphenyl-4-ylmethyl)-4-pentylbenzamide] | 
204 | CCCCCc1ccc(C(=O)N(Cc2ccc(OC(C)C)cc2)C2CCN(Cc3ccccc3)CC2)cc1 [Example 83, N-(1-Benzylpiperidin-4-yl)-N-(4-isopropoxybenzyl)-4-pentylbenzamide] | 
 | CCCCCc1ccc(CN(Cc2ccc(-c3ccccc3)cc2)C2CCN(Cc3ccccc3)CC2)cc1 [Example 31] | 210
250 | CCCCCc1ccc(C(=O)N(Cc2ccc(-c3cncnc3)cc2)C2CCN(Cc3ccccc3)CC2)cc1 [Example 87, N-(1-Benzylpiperidin-4-yl)-4-pentyl-N-(4-pyrimidin-5-ylbenzyl)benzamide] | 
125 | CCCCCc1ccc(C(=O)N(Cc2ccc(-c3ccccn3)cc2)C2CCN(CC3=CCCCC3)CC2)cc1 [Example 70, N-(1-Cyclohex-1-enylmethylpiperidin-4-yl)-4-pentyl-N-(4-pyridin-2-ylbenzyl)benzamide] | 
431 | CCCCCc1ccc(CN(Cc2ccc(OCc3ccccc3)cc2)C2CCN(Cc3ccccc3)CC2)cc1 [Example 103, (4-Benzyloxybenzyl)-(1-benzyl-piperidin-4-yl)-(4-pentylbenzyl)amine] | 
45 | CCCCCc1ccc(C(=O)N(Cc2ccc(-c3ccc(OC)c(OC)c3)cc2)C2CCN(Cc3cccnc3)CC2)cc1 [Example 46, N-(3′,4′-Dimethoxybiphenyl-4-ylmethyl)-4-pentyl-N-(1-pyridin-3-ylmethylpiperidin-4-yl)benzamide] | 
128 | CCCCCc1ccc(C(=O)N(Cc2ccc(-c3cccnc3)cc2)C2CCN(Cc3ccc(CO)o3)CC2)cc1 [Example 72, N-[1-(5-Hydroxymethyl-furan-2-ylmethyl)piperidin-4-yl]-4-pentyl-N-(4-pyridin-3-ylbenzyl)benzamide] | 
361 | CCCCCc1ccc(C(=O)N(Cc2ccc(-c3ccccc3)cc2)C2CCN(Cc3ccccc3O)CC2)cc1 [Example 99, N-Biphenyl-4-ylmethyl-N-[1-(2-hydroxybenzyl)piperidin-4-yl]-4-pentylbenzamide] | 
68 | CCCCCc1ccc(C(=O)N(Cc2ccc(-c3ccc(C#N)cc3)cc2)C2CCN(Cc3cccnc3)CC2)cc1 [Example 55, N-(4′-Cyanobiphenyl-4-ylmethyl)-4-pentyl-N-(1-pyridin-3-ylmethylpiperidin-4-yl)benzamide] | 
284 | CCCCCc1ccc(C(=O)N(Cc2ccc3c(c2)OCO3)C2CCN(Cc3ccccc3)CC2)cc1 [Example 93, N-Benzo[1,3]dioxol-5-ylmethyl-N-(1-benzylpiperidin-4-yl)-4-pentyl-benzamide] | 
